We go through 21 compounds from patent US20260224758A1, “ALPHA-SYNUCLEIN BINDERS AND METHODS OF USE” (Merck Sharp & Dohme LLC, priority 2023, published 2026).

Assay [1] has as its target T1, triton-extracted alpha-synuclein from PD Tissue (Homo sapiens, UniProt P37840).
T1 construct: tissue Analytic Biological Services Inc; host or cells: human PD temporal cortex grey matter, Triton X-100 insoluble pellet
As to the kind of experiment: Alpha-synuclein tissue homogenate binding assay (Assay 1), displacement of [^3H]-1000. Conditions: for Selectivity ratio (Assay 2/Assay 1): Aβ Tissue Ki / α-synuclein Tissue Ki; for Ki: read-out: α-synuclein Tissue Ki (Assay 1). How it is done:
Frozen human brain tissues from PD patients were purchased from Analytic Biological Services Inc. The samples were post-mortem tissues from donors with clinical diagnosis of late stage of PD. Alpha-synuclein, tau and amyloid burden was determined through a combination of immunohistochemistry on frozen thin coronal sections, as well as alpha Lisa-based quantification of protein levels in a detergent insoluble protein fraction. A tissue sample of temporal cortex was identified from one donor as having moderate to high alpha-synuclein burden, low amyloid and minimal to no tau pathology. The detergent insoluble fraction of temporal cortex from this patient was used to support homogenate binding studies. Grey matter was dissected out of the temporal cortex tissue with a dissecting blade and minced with fine dissecting scissors. […] Homogenates were centrifuged at 100,000×g for 45 minutes. The pellet was resuspended in TBS-TX buffer, using a Polytron at highest setting for 30 seconds at 4° C. Homogenates were centrifuged at 100,000×g for 45 minutes and the pellet was resuspended in TBS-TX buffer. A BCA protein assay was performed on the final homogenate to determine the protein concentration. […] For displacement a-synuclein binding assay, compounds and control were solvated in dimethyl sulfoxide (DMSO) and transferred using focused acoustic energy by an Echo 655 liquid handling instrument (Beckman Coulter, Indianapolis, IN) into designated wells of uniquely bar coded 96-well v-bottom low binding polypropylene microplates (Thermo Scientific, 249946). Compound dose response curves were prepared in a 10-point, 3-fold fashion within columns 2-11 of the microplate from high to low compound concentrations. […] Liquid-handling steps for dispensing insoluble fractions of PD brain homogenates and radioligand were performed using a Bravo automated liquid handling platform equipped with a 96LT disposable tip head (Agilent Technologies, Santa Clara. CA). […] The incubation was terminated by rapid filtration through UniFilter-96 GF/C microplates (pre-treated for 30 minutes with 0.2% Polyethylenimine at 4° C.) by using a FilterMate Harvester (PerkinElmer). […] The bottom of each UniFilter-96 GF/C microplate was adhesively sealed (PerkinElmer 6005199) prior to the addition of 50 μL MicroScint-20 liquid scintillation cocktail (PerkinElmer 6013621) to each well. A clear adhesive seal (TopSeal-A PLUS, PerkinElmer 6050185) was then applied to the top of each microplate and counted 1 minute/well on MicroBeta^2 system (PerkinElmer.

In assay [2] the target is aggregated beta amyloid in AD tissue (Homo sapiens, UniProt P05067). As to the kind of experiment: Competitive radioligand binding to pathological aggregated beta amyloid in AD tissue (Assay 2), displacement of [^3H]-105. The conditions noted are these: Aβ-rich AD frontal cortex homogenate, [^3H]-105, Kd 11.0 nM.
aggregated beta amyloid in AD tissue, sequence (P05067 672-711 limits assumed): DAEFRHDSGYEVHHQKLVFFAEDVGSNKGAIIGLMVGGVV
Procedure: Frozen human brain samples of Alzheimer's disease (AD) were purchased from Analytic Biological Services Inc. The samples were post-mortem tissue from donors with clinical diagnosis of AD and much of the white matter was dissected out of the frontal cortex in order to enrich the tissue preparations for gray matter. Brain homogenates of gray matter enriched frontal cortex were prepared by homogenizing the tissue in ice cold Phosphate Buffered Saline (PBS), pH 7.4 at 80 mg wet weight tissue per 1 ml for 45 seconds at 4° C., on setting 16 of Polytron. The homogenate was further diluted with ice cold PBS to 30 mg wet weight tissue per 1 ml and homogenized for an additional minute as described above. Homogenates were aliquoted in 5 ml/tube and stored at −70° C. until use.
Radioligand [^3H]-105, prepared as described in ACS Med. Chem. Lett., Vol. 2, pages 498-502, was used in this assay.
For Assay 2 unlabeled test compounds were dissolved in DMSO at 10 mM. Dilutions of tests compounds to various concentrations were made in 100% DMSO at 1000× final assay concentration and 0.225 μl aliquots were dispensed into assay plates. Brain homogenates were diluted to 0.5 mg/ml from original 30 mg/ml volume in Assay Buffer, and 200 μl were added to the assay plate for a final concentration of 100 ug wet weight/assay well. [^3H]-105 was prepared at 10× final concentration in Assay Buffer plus 20% DMSO and 25 μl was added to the assay plate for final assay concentration of 3.0 nM. The plates were incubated at 37° C. for 90 minutes. Unbound and bound ligand were separated by filtration of bound onto GF/B filter plates (pre-treated for 30 min with 0.1% PEI) using a Packard Filtermate and washing away unbound with 2.5 mil ice cold 5 mM Tris at pH 7.4. Filter plates were dried for 1 hr at 57° C. and 50 μl Microscint was added to each well of the plate. The plates were counted for ^3H cpm for 1 min per well using PerkinElmer TopCount.
[3] abbreviates: insoluble fraction of PD brain homogenate, [^3H]-1000 3.0 nM, Kd 0.90 nM.

Like-named read-outs stand apart in the source and are kept apart here.

Take `FCCOC[C@@H]1CN(c2ncc(C#Cc3ccc(-c4cnco4)nc3)cn2)CCN1c1ncncn1` [Example 62, (S)-5-(5-((2-(3-((2-fluoroethoxy)methyl)-4-(1,3,5-triazin-2-yl)piperazin-1-yl)pyrimidin-5-yl)ethynyl)pyridin-2-yl)oxazole]: in assay [1], the “Selectivity ratio (Assay 2/Assay 1)” value is reported as 811. The inhibitory constant (Ki) in assay [1] (setting [3]) is 1.48 nM; in assay [2], ≥ 1200 nM.

In the case of `Cn1cc(-c2ncc(C#Cc3cnc(N4CCN(c5ncccn5)[C@@H](COCCOCCF)C4)nc3)cn2)cn1` [Example 52, (R)-2-(3-((2-(2-fluoroethoxy)ethoxy)methyl)-4-(pyrimidin-2-yl)piperazin-1-yl)-5-((2-(1-methyl-1H-pyrazol-4-yl)pyrimidin-5-yl)ethynyl)pyrimidine], in assay [1], the “Selectivity ratio (Assay 2/Assay 1)” value stood at 857 and the Ki was found to be 1.4 nM. Moreover, the Ki in assay [2] is ≥ 1200 nM.

As to `COC[C@H]1CN(c2ncc(C#Cc3cnc(-c4cnn(CCF)c4)nc3)cn2)CCN1c1ncncn1` [Example 46, (R)-2-(4-(5-((2-(1-(2-fluoroethyl)-1H-pyrazol-4-yl)pyrimidin-5-yl)ethynyl)pyrimidin-2-yl)-2-(methoxymethyl)piperazin-1-yl)-1,3,5-triazine], the “Selectivity ratio (Assay 2/Assay 1)” value in assay [1] was found to be 929. The Ki was 1.29 nM in assay [1] (setting [3]) and ≥ 1200 nM in assay [2].

As for `COC[C@H]1CN(c2ncc(C#Cc3ccc(N4CC[C@H](F)C4)nc3)cn2)CCN1c1ncccn1` [Example 72, 5-((6-((S)-3-fluoropyrrolidin-1-yl)pyridin-3-yl)ethynyl)-2-((R)-3-(methoxymethyl)-4-(pyrimidin-2-yl)piperazin-1-yl)pyrimidine], the “Selectivity ratio (Assay 2/Assay 1)” value in assay [1] amounted to 617. The Ki in assay [1] (setting [3]) was 1.94 nM; in assay [2], ≥ 1200 nM.

On to `COC[C@H]1CN(c2ncc(C#Cc3ccc(-n4cnnc4)nc3)cn2)CCN1c1cc(F)ncn1` [Example 45, (R)-5-((6-(4H-1,2,4-triazol-4-yl)pyridin-3-yl)ethynyl)-2-(4-(6-fluoropyrimidin-4-yl)-3-(methoxymethyl)piperazin-1-yl)pyrimidine], for which the “Selectivity ratio (Assay 2/Assay 1)” value in assay [1] came to 589. Further, the inhibition constant Ki is 2.04 nM in assay [1] (setting [3]) and ≥ 1200 nM in assay [2].

With `COC[C@H]1CN(c2ncc(/C=C/c3ccc(-n4ccnc4)nc3)cn2)CCN1c1ncc(OCCF)cn1` [Example 35, (R,E)-5-(2-(6-(1H-imidazol-1-yl)pyridin-3-yl)vinyl)-2-(4-(5-(2-fluoroethoxy)pyrimidin-2-yl)-3-(methoxymethyl)piperazin-1-yl)pyrimidine], the “Selectivity ratio (Assay 2/Assay 1)” value in assay [1] came out at 2000. For the same compound, in assay [1] (setting [3]), the Ki is 2 nM.

On to `COC[C@H]1CN(c2ncc(C#Cc3ccc(N4CCC(n5nccn5)CC4)nc3)cn2)CCN1c1ncccn1` [Example 76, (R)-5-((6-(4-(2H-1,2,3-triazol-2-yl)piperidin-1-yl)pyridin-3-yl)ethynyl)-2-(3-(methoxymethyl)-4-(pyrimidin-2-yl)piperazin-1-yl)pyrimidine], for which the Ki in assay [1] (setting [3]) is 1.15 nM.

Regarding `Cn1cc(-c2ncc(C#Cc3cnc(N4CCN(c5ccncn5)[C@@H](COCCF)C4)nc3)cn2)cn1` [Example 53, (R)-2-(3-((2-fluoroethoxy)methyl)-4-(pyrimidin-4-yl)piperazin-1-yl)-5-((2-(1-methyl-1H-pyrazol-4-yl)pyrimidin-5-yl)ethynyl)pyrimidine], the Ki in assay [1] (setting [3]) is 0.32 nM.

With `Nc1cnn(-c2ncc(C#Cc3cnc(N4CCN(c5ncncn5)[C@@H](COCCF)C4)nc3)cn2)c1` [Example 73, (R)-1-(5-((2-(3-((2-fluoroethoxy)methyl)-4-(1,3,5-triazin-2-yl)piperazin-1-yl)pyrimidin-5-yl)ethynyl)pyrimidin-2-yl)-1H-pyrazol-4-amine], in assay [1] (setting [3]), the Ki stood at 9.16 nM.

In the case of `COC[C@H]1CN(c2ncc(C#Cc3cnc(-n4cnnc4)nc3)cn2)CCN1c1ccc(F)cn1` [Example 89, (R)-5-((2-(4H-1,2,4-triazol-4-yl)pyrimidin-5-yl)ethynyl)-2-(4-(5-fluoropyridin-2-yl)-3-(methoxymethyl)piperazin-1-yl)pyrimidine], the Ki in assay [1] (setting [3]) was found to be 2.59 nM.

Turning to `COC[C@H]1CN(c2ncncn2)CCN1c1ncc(C#Cc2cnc(-c3cnn(CCF)c3)nc2)cn1` [Example 84, (R)-2-(4-(5-((2-(1-(2-fluoroethyl)-1H-pyrazol-4-yl)pyrimidin-5-yl)ethynyl)pyrimidin-2-yl)-3-(methoxymethyl)piperazin-1-yl)-1,3,5-triazine], in assay [1] (setting [3]), the Ki stood at 2.29 nM.

`COC[C@H]1CN(c2ncc(C#Cc3ccc(-c4cnn(C)c4)nc3)cn2)CCN1c1ncc(OCCF)cn1` [Example 92, (R)-5-(2-fluoroethoxy)-2-(2-(methoxymethyl)-4-(5-((6-(1-methyl-1H-pyrazol-4-yl)pyridin-3-yl)ethynyl)pyrimidin-2-yl)piperazin-1-yl)pyrimidine]: the Ki in assay [1] (setting [3]) stood at 0.83 nM.

For the compound `COC[C@H]1CN(c2ncc(C#Cc3ccc(-c4cc(F)ncn4)nc3)cn2)CCN1c1ncc(C#N)cn1` [Example 81, (R)-2-(4-(5-((6-(6-fluoropyrimidin-4-yl)pyridin-3-yl)ethynyl)pyrimidin-2-yl)-2-(methoxymethyl)piperazin-1-yl)pyrimidine-5-carbonitrile], the Ki in assay [1] (setting [3]) amounted to 1.18 nM.

As to `FCCOC[C@H]1CN(c2ncc(C#Cc3cnc(-c4cnco4)nc3)cn2)CCN1c1ncncn1` [Example 55, (R)-5-(5-((2-(3-((2-fluoroethoxy)methyl)-4-(1,3,5-triazin-2-yl)piperazin-1-yl)pyrimidin-5-yl)ethynyl)pyrimidin-2-yl)oxazole], the Ki in assay [1] (setting [3]) came out at 6.67 nM.

Take `COC[C@H]1CN(c2ncc(C#Cc3ccc(-c4cnn(CCF)c4)nc3)cn2)CCN1c1ncc(F)cn1` [Example 90, (R)-5-fluoro-2-(4-(5-((6-(1-(2-fluoroethyl)-1H-pyrazol-4-yl)pyridin-3-yl)ethynyl)pyrimidin-2-yl)-2-(methoxymethyl)piperazin-1-yl)pyrimidine]: the Ki in assay [1] (setting [3]) came out at 1.82 nM.

As to `FCCOCCOC[C@H]1CN(c2ncc(C#Cc3ccc(-c4cnco4)nc3)cn2)CCN1c1ncncn1` [Example 48, (R)-5-(5-((2-(3-((2-(2-fluoroethoxy)ethoxy)methyl)-4-(1,3,5-triazin-2-yl)piperazin-1-yl)pyrimidin-5-yl)ethynyl)pyridin-2-yl)oxazole], the inhibitory constant (Ki) in assay [1] (setting [3]) was 0.897 nM.

In the case of `FCCOC[C@H]1CN(c2ncc(/C=C/c3ccc(-n4ccnc4)nc3)cn2)CCN1c1ncccn1` [Example 3, (R,E)-5-(2-(6-(1H-imidazol-1-yl)pyridin-3-yl)vinyl)-2-(3-((2-fluoroethoxy)methyl)-4-(pyrimidin-2-yl)piperazin-1-yl)pyrimidine], in assay [1], the “Selectivity ratio (Assay 2/Assay 1)” value is given as 8000. Moreover, the Ki in assay [1] (setting [3]) is 0.5 nM.

Take `COC[C@H]1CN(c2ncc(C#Cc3cnc(-c4cnn(CCF)c4)nc3)cn2)CCN1c1ccncn1` [Example 54, (R)-2-(1-(2-fluoroethyl)-1H-pyrazol-4-yl)-5-((2-(3-(methoxymethyl)-4-(pyrimidin-4-yl)piperazin-1-yl)pyrimidin-5-yl)ethynyl)pyrimidine]: the Ki in assay [1] (setting [3]) amounted to 0.91 nM.

As to `COC[C@H]1CN(c2ncc(C#Cc3cnc(-c4cnn(C)c4)nc3)cn2)CCN1c1cc(F)ncn1` [Example 94, (R)-2-(4-(6-fluoropyrimidin-4-yl)-3-(methoxymethyl)piperazin-1-yl)-5-((2-(1-methyl-1H-pyrazol-4-yl)pyrimidin-5-yl)ethynyl)pyrimidine], the inhibition constant (Ki) in assay [1] (setting [3]) was 0.76 nM.

Turning to `COC[C@H]1CN(c2ncc(C#Cc3ccc(-n4ccnc4)nc3)cn2)CCN1c1cc(F)ncn1` [Example 12, (R)-5-((6-(1H-imidazol-1-yl)pyridin-3-yl)ethynyl)-2-(4-(6-fluoropyrimidin-4-yl)-3-(methoxymethyl)piperazin-1-yl)pyrimidine], in assay [1], the “Selectivity ratio (Assay 2/Assay 1)” value is listed as 3636 and the Ki turned out to be 1.1 nM.

As for `Cn1cc(-c2ncc(/C=C/c3cnc(N4CCN(c5ncncn5)[C@@H](COCCF)C4)nc3)cn2)cn1` [Example 43, (R,E)-2-(2-((2-fluoroethoxy)methyl)-4-(5-(2-(2-(1-methyl-1H-pyrazol-4-yl)pyrimidin-5-yl)vinyl)pyrimidin-2-yl)piperazin-1-yl)-1,3,5-triazine], the inhibition constant (Ki) in assay [1] worked out at 1.22 nM.
